Assay results reported in PubChem BioAssay AID1963967 (Molecular Pharmacology Branch, DTP, NCI, 2024).

Tested on: 855422-203-R-J1-PDC spheroids with HUVEC/MSC, viability
Assay: Anticancer human tumor 855422-203-R-J1-PDC patient-derived bladder carcinoma cell line growth inhibition [PI3K]
Conditions: for IC50: curve of first compound; for viability, T/C: stronger effect = lower value
How it was run: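 Complex 3D spheroids (cancer cells + endothelial HUVEC + mesenchymal stem cells); drug pairs of targeted agent x inavolisib/alpelisib/duvelisib/copanlisib; half-log series from ~Cmax, max 10 microM if Cmax unknown; endpoint viability.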

[1] = second compound 0.0316 µM, first compound 0.0316 µM
[2] = second compound 0.0316 µM, first compound 0.1 µM
[3] = second compound 0.1 µM, first compound 0.0316 µM
[4] = second compound 0.1 µM, first compound 0.1 µM
[5] = second compound 0.316 µM, first compound 0.0316 µM
[6] = second compound 0.316 µM, first compound 0.1 µM
[7] = second compound 1 µM, first compound 0.0316 µM
[8] = second compound 1 µM, first compound 0.1 µM
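Note: agents incubated with spheroids for one week before read-out.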
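Throughout, for viability, T/C: 100% = DMSO vehicle-treated control wells.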

SMILES: CC(C)n1nc(-c2ccc3oc(N)nc3c2)c2c(N)ncnc21 + Cc1nc(NC(=O)N2CCCC2C(N)=O)sc1-c1ccnc(C(C)(C)C(F)(F)F)c1
- IC50 (second compound 0.0316 µM): 49.5 nM
- IC50 (second compound 0.1 µM): 42.8 nM
- IC50 (second compound 0.316 µM): 33.1 nM
- IC50 (second compound 1 µM): 11.1 nM
- IC50 (second compound 3.16 µM): < 0.316 nM
- IC50 (second compound 10 µM): < 0.316 nM
- viability, T/C (second compound 0.0316 µM, first compound 0.000316 µM): 85.8%
- viability, T/C (second compound 0.0316 µM, first compound 0.001 µM): 86.9%
- viability, T/C (second compound 0.0316 µM, first compound 0.00316 µM): 106%
- viability, T/C (second compound 0.0316 µM, first compound 0.01 µM): 87.6%
- viability, T/C [1]: 70.7%
- viability, T/C [2]: 17.8%
- viability, T/C (second compound 0.1 µM, first compound 0.000316 µM): 105%
- viability, T/C (second compound 0.1 µM, first compound 0.001 µM): 88.5%
- viability, T/C (second compound 0.1 µM, first compound 0.00316 µM): 97.2%
- viability, T/C (second compound 0.1 µM, first compound 0.01 µM): 82.8%
- viability, T/C [3]: 63.6%
- viability, T/C [4]: 14.7%
- viability, T/C (second compound 0.316 µM, first compound 0.000316 µM): 68.4%
- viability, T/C (second compound 0.316 µM, first compound 0.001 µM): 87.6%
- viability, T/C (second compound 0.316 µM, first compound 0.00316 µM): 87.4%
- viability, T/C (second compound 0.316 µM, first compound 0.01 µM): 75.1%
- viability, T/C [5]: 51.8%
- viability, T/C [6]: 12.3%
- viability, T/C (second compound 1 µM, first compound 0.000316 µM): 67.5%
- viability, T/C (second compound 1 µM, first compound 0.001 µM): 66.9%
- viability, T/C (second compound 1 µM, first compound 0.00316 µM): 55.9%
- viability, T/C (second compound 1 µM, first compound 0.01 µM): 51.4%
- viability, T/C [7]: 37.8%
- viability, T/C [8]: 8.4%
- viability, T/C (second compound 3.16 µM, first compound 0.000316 µM): 42.5%
- viability, T/C (second compound 3.16 µM, first compound 0.001 µM): 44.7%
- viability, T/C (second compound 3.16 µM, first compound 0.00316 µM): 35.8%
- viability, T/C (second compound 3.16 µM, first compound 0.01 µM): 34.1%
- viability, T/C (second compound 3.16 µM, first compound 0.0316 µM): 20.5%
- viability, T/C (second compound 3.16 µM, first compound 0.1 µM): 5.68%
- viability, T/C (second compound 10 µM, first compound 0.000316 µM): 22.9%
- viability, T/C (second compound 10 µM, first compound 0.001 µM): 19.3%
- viability, T/C (second compound 10 µM, first compound 0.00316 µM): 20.3%
- viability, T/C (second compound 10 µM, first compound 0.01 µM): 16.2%
- viability, T/C (second compound 10 µM, first compound 0.0316 µM): 11.9%
- viability, T/C (second compound 10 µM, first compound 0.1 µM): 3.12%

SMILES: CCCS(=O)(=O)Nc1ccc(F)c(C(=O)c2c[nH]c3ncc(-c4ccc(Cl)cc4)cc23)c1F + COc1c(OCCCN2CCOCC2)ccc2c3n(c(=NC(=O)c4cnc(N)nc4)nc12)CCN3
- IC50 (second compound 0.00316 µM): 4390 nM
- IC50 (second compound 0.01 µM): 4840 nM
- IC50 (second compound 0.0316 µM): 3060 nM
- IC50 (second compound 0.1 µM): < 31.6 nM
- IC50 (second compound 0.316 µM): < 31.6 nM
- IC50 (second compound 1 µM): < 31.6 nM
- viability, T/C (second compound 0.00316 µM, first compound 0.0316 µM): 97.6%
- viability, T/C (second compound 0.00316 µM, first compound 0.1 µM): 83.8%
- viability, T/C (second compound 0.00316 µM, first compound 0.316 µM): 87.2%
- viability, T/C (second compound 0.00316 µM, first compound 1 µM): 82.5%
- viability, T/C (second compound 0.00316 µM, first compound 3.16 µM): 71.3%
- viability, T/C (second compound 0.00316 µM, first compound 10 µM): 0.07%
- viability, T/C (second compound 0.01 µM, first compound 0.0316 µM): 105%
- viability, T/C (second compound 0.01 µM, first compound 0.1 µM): 89.5%
- viability, T/C (second compound 0.01 µM, first compound 0.316 µM): 83%
- viability, T/C (second compound 0.01 µM, first compound 1 µM): 90.6%
- viability, T/C (second compound 0.01 µM, first compound 3.16 µM): 78.9%
- viability, T/C (second compound 0.01 µM, first compound 10 µM): 0.31%
- viability, T/C [1]: 68.2%
- viability, T/C [2]: 75.1%
- viability, T/C (second compound 0.0316 µM, first compound 0.316 µM): 78.6%
- viability, T/C (second compound 0.0316 µM, first compound 1 µM): 67.1%
- viability, T/C (second compound 0.0316 µM, first compound 3.16 µM): 49.7%
- viability, T/C (second compound 0.0316 µM, first compound 10 µM): 0.93%
- viability, T/C [3]: 34.5%
- viability, T/C [4]: 35.3%
- viability, T/C (second compound 0.1 µM, first compound 0.316 µM): 34.1%
- viability, T/C (second compound 0.1 µM, first compound 1 µM): 32.4%
- viability, T/C (second compound 0.1 µM, first compound 3.16 µM): 23.9%
- viability, T/C (second compound 0.1 µM, first compound 10 µM): 1.58%
- viability, T/C [5]: 11.9%
- viability, T/C [6]: 11.4%
- viability, T/C (second compound 0.316 µM, first compound 0.316 µM): 11.9%
- viability, T/C (second compound 0.316 µM, first compound 1 µM): 11.8%
- viability, T/C (second compound 0.316 µM, first compound 3.16 µM): 8.59%
- viability, T/C (second compound 0.316 µM, first compound 10 µM): 0.86%
- viability, T/C [7]: 4.83%
- viability, T/C [8]: 3.64%
- viability, T/C (second compound 1 µM, first compound 0.316 µM): 4.81%
- viability, T/C (second compound 1 µM, first compound 1 µM): 6.51%
- viability, T/C (second compound 1 µM, first compound 3.16 µM): 3.75%
- viability, T/C (second compound 1 µM, first compound 10 µM): 2%

SMILES: Cn1cnc2c(F)c(Nc3ccc(Br)cc3Cl)c(C(=O)NOCCO)cc21 + CC(Nc1ccc2c(c1)OCCn1cc(N3C(=O)OCC3C(F)F)nc1-2)C(N)=O
- IC50 (second compound 0.00316 µM): 2280 nM
- IC50 (second compound 0.01 µM): 2150 nM
- IC50 (second compound 0.0316 µM): 1870 nM
- IC50 (second compound 0.1 µM): 769 nM
- IC50 (second compound 0.316 µM): < 9.49 nM
- IC50 (second compound 1 µM): < 9.49 nM
- viability, T/C (second compound 0.00316 µM, first compound 0.00949 µM): 91.7%
- viability, T/C (second compound 0.00316 µM, first compound 0.03 µM): 83.8%
- viability, T/C (second compound 0.00316 µM, first compound 0.0949 µM): 104%
- viability, T/C (second compound 0.00316 µM, first compound 0.3 µM): 83.2%
- viability, T/C (second compound 0.00316 µM, first compound 0.949 µM): 82.5%
- viability, T/C (second compound 0.00316 µM, first compound 3 µM): 39.8%
- viability, T/C (second compound 0.01 µM, first compound 0.00949 µM): 95.9%
- viability, T/C (second compound 0.01 µM, first compound 0.03 µM): 89.1%
- viability, T/C (second compound 0.01 µM, first compound 0.0949 µM): 97.7%
- viability, T/C (second compound 0.01 µM, first compound 0.3 µM): 81.4%
- viability, T/C (second compound 0.01 µM, first compound 0.949 µM): 80.9%
- viability, T/C (second compound 0.01 µM, first compound 3 µM): 37.9%
- viability, T/C (second compound 0.0316 µM, first compound 0.00949 µM): 81%
- viability, T/C (second compound 0.0316 µM, first compound 0.03 µM): 83.4%
- viability, T/C (second compound 0.0316 µM, first compound 0.0949 µM): 91.5%
- viability, T/C (second compound 0.0316 µM, first compound 0.3 µM): 92.3%
- viability, T/C (second compound 0.0316 µM, first compound 0.949 µM): 75%
- viability, T/C (second compound 0.0316 µM, first compound 3 µM): 32.6%
- viability, T/C (second compound 0.1 µM, first compound 0.00949 µM): 64.9%
- viability, T/C (second compound 0.1 µM, first compound 0.03 µM): 67.1%
- viability, T/C (second compound 0.1 µM, first compound 0.0949 µM): 67.3%
- viability, T/C (second compound 0.1 µM, first compound 0.3 µM): 71.3%
- viability, T/C (second compound 0.1 µM, first compound 0.949 µM): 46%
- viability, T/C (second compound 0.1 µM, first compound 3 µM): 22.2%
- viability, T/C (second compound 0.316 µM, first compound 0.00949 µM): 47.6%
- viability, T/C (second compound 0.316 µM, first compound 0.03 µM): 45.7%
- viability, T/C (second compound 0.316 µM, first compound 0.0949 µM): 47.3%
- viability, T/C (second compound 0.316 µM, first compound 0.3 µM): 38.3%
- viability, T/C (second compound 0.316 µM, first compound 0.949 µM): 28.6%
- viability, T/C (second compound 0.316 µM, first compound 3 µM): 9.16%
- viability, T/C (second compound 1 µM, first compound 0.00949 µM): 30.4%
- viability, T/C (second compound 1 µM, first compound 0.03 µM): 28.1%
- viability, T/C (second compound 1 µM, first compound 0.0949 µM): 25.3%
- viability, T/C (second compound 1 µM, first compound 0.3 µM): 21.3%
- viability, T/C (second compound 1 µM, first compound 0.949 µM): 16.1%
- viability, T/C (second compound 1 µM, first compound 3 µM): 4.67%
